{
  "source": "patent US12551463B2",
  "about": "“Dosing of a Bruton's tyrosine kinase inhibitor” (Loxo Oncology, Inc., priority 2019, dated 2026)",
  "key": {"[1]": {"test_system": "REC-1 cells", "test": "In vivo mouse xenograft study, REC-1", "parameters": "species or system mice", "conditions": "BTK-I BID alone; BTK WT driven REC-1 (MCL) xenograft", "experimental": "(§1) In all studies, test articles are administered alone and in combination, following different dosing regimens.\n(§2) Human TMD8 BTK WT, TMD8 BTK C481S or REC-1 cells are injected subcutaneously in the right flank of mice. When tumors reach a mean volume between 150 mm^3 and 400 mm^3, mice are randomized based on their tumor volumes. Mice are next dosed for 14 to 23 days depending on the study design. The potencies of the compounds stand-alone or in combination on the inhibition of the tumor growth are assessed based on the tumor volume changes and weights after collection at the end of the study. Additionally, in the TMD8 studies, the plasma concentrations of test articles are measured at multiple time points after the last dose."}, "[2]": {"test_system": "TMD8 BTK C481S cells", "test": "In vivo mouse xenograft study, TMD8 BTK C481S", "parameters": "species or system mice", "conditions": "BTK-I BID alone; BTK C481S driven TMD8 (DLBCL) xenograft", "experimental": "as §1, §2"}, "[3]": {"molecular_target": "T1, BTK wild type (Homo sapiens, UniProt Q06187)", "T1 construct": "expressed in transfected cells", "test": "BTK Y223 autophosphorylation in HEK293 cells expressing BTK wild type", "type": "cell-based", "conditions": "for IC90: HEK293, wild type BTK", "experimental": "(§3) HEK293 cell lines stably expressing BTK wild type and the mutant form C481S are generated using standard transfection methods. For assessment of cellular inhibition potency, cells are grown in DMEM+10% FBS+1 μg/mL puromycin (complete growth media) at 37° C. in a C02 incubator. Cells are harvested according to standard protocols using TrypLE (Gibco #12604-013), counted, resuspended in complete growth media, and added to 6 well assay plates at […] in 2 mL. Plates are incubated overnight at 37° C. with 5% C02. The following day, cells are treated for 2 hours with BTK-I, prepared as a 6-point dose curve, 1:3 dilution series with final concentrations starting at a maximum concentration of 300 nM and a constant DMSO concentration of 0.5% (v/v). Control wells contain 0.5% (v/v) DMSO alone (no inhibition control). All samples are tested in triplicate. Following compound incubation, growth medium is discarded, cells are washed with DPBS (1×) (Gibco #14190-144) and lysed in 1 mL of CelLytic™ M (Sigma #C2978) containing 1× Halt phosphatase and protease inhibitor cocktails (Pierce #78442). Plates are placed on ice for 1 hour with gentle agitation and stored at −80° C. overnight. The next day, cell lysates are placed in 1.5 mL tubes and cleared by centrifugation at 16,000×g for 10 minutes at 4° C. Supernatants are quantified by BCA (Pierce #23225) and stored at −80° C. Samples are analyzed by Simple Western (Protein Simple) with anti-phospho-BTK (Y223) (Cell signaling technologies (cst) #5082) and anti-BTK (cst #8547). β-actin is the used as a loading control and detected by regular Western blot with an anti-β-actin antibody (cst #4970). Simple Western results are analyzed with Compass software (Protein Simple). BTK Y223 phosphorylation signal is normalized to total BTK, and IC50 values are calculated using a 4-parameter fit in GraphPad Prism 7.04 software."}, "[4]": {"test_system": "MZL", "test": "Phase 1/2 clinical study, MZL patients", "type": "in vivo, human", "from_the_text": "(§4) The study is an open-label, multi-center study of oral BTK-I to evaluate safety and efficacy as monotherapy and as part of combination therapy in patients with CLL/SLL and NHL who have failed or are intolerant to standard of care. This study includes monotherapy as well as combination treatment parts. The monotherapy part includes Phase 1 dose escalation and dose expansion as well as Phase 2. The combination therapy part is a Phase 1b (safety assessment and expansion) of BTK-I in combination with venetoclax, with or without anti-CD20 therapy. Phase 1 dose escalation will proceed prior to start of Phase 1b or Phase 2. Once a recommended Phase 2 dose (RP2D) is identified in Phase 1, enrollment can commence to the Phase 1b combination therapies and Phase 2 monotherapy cohorts. […]\n(§5) The primary objective of the Phase 2 is to assess the primary anti-tumor activity of BTK-I based on overall response rate (ORR) and as assessed by the Independent Review Committee. […]\n(§6) Dosing during Phase 2 will be at the RP2D of 200 mg QD. […] The dose (and schedule) chosen for Phase 2 may be changed by the SRC based on emerging data (e.g., PK, safety, and/or efficacy) as long as the new dose is not greater than the highest dose that has a DLT <33% and is determined to be safe by the SRC in Phase 1. […]"}, "[5]": {"test_system": "Richter's transformation", "test": "Phase 1/2 clinical study, Richter's transformation patients", "type": "in vivo, human", "conditions": "6 of 8 patients", "from_the_text": "as §4, §5, §6"}, "[6]": {"molecular_target": "T2, BTK C481S mutant (Homo sapiens, UniProt Q06187, C481S)", "T2 construct": "expressed in transfected cells", "T2 sequence (Q06187 whole entry C481S)": "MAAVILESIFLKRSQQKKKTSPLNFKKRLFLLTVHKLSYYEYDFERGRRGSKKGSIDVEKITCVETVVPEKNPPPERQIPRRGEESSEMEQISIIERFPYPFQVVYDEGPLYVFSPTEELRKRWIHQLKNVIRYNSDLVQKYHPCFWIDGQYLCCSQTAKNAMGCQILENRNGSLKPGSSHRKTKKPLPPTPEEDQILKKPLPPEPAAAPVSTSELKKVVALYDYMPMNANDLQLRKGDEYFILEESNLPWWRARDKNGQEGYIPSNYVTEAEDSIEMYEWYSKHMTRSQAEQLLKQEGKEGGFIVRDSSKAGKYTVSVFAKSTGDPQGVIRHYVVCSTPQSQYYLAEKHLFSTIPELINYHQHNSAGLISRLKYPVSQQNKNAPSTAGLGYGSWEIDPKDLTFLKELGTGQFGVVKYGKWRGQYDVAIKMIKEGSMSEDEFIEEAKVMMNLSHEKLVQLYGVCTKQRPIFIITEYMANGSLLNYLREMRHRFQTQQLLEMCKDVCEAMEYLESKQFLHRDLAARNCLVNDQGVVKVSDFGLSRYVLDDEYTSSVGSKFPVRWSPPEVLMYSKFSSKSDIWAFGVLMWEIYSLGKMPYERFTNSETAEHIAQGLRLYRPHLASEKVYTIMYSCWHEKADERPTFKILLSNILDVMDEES", "test": "BTK Y223 autophosphorylation in HEK293 cells expressing BTK C481S mutant", "type": "cell-based", "experimental": "as §3, with “All samples are tested in triplicate. Following compound incubation, growth medium is discarded, cells are washed with DPBS (1×) (Gibco #14190-144) and lysed in 1 mL of CelLytic™ M (Sigma #C2978) containing 1× Halt phosphatase and protease inhibitor cocktails (Pierce #78442). Plates are placed on ice for 1 hour with gentle agitation and stored at −80° C. overnight. The next day, cell lysates are placed in 1.5 mL tubes and cleared by centrifugation at 16,000×g for 10 minutes at 4° C.” left out"}, "[7]": {"conditions": "read-out: IC90 translated to total drug in human plasma"}},
  "note": "Read-outs that look alike come from different tables or passages of the source.",
  "data": [
    {"smiles": "COc1ccc(F)cc1C(=O)NCc1ccc(-c2nn([C@@H](C)C(F)(F)F)c(N)c2C(N)=O)cc1", "note": "[BTK-I, (S)-5-amino-3-(4-((5-fluoro-2-methoxybenzamido)methyl)phenyl)-1-(1,1,1-trifluoropropane-2-yl)-1H-pyrazole-4-carboxamide]", "values": [
      {"measurement": "inhibition of xenograft tumor growth", "setting": "[1]", "value": "potently inhibited the growth"},
      {"measurement": "inhibition of xenograft tumor growth", "setting": "[2]", "value": "potently inhibited the growth"},
      {"measurement": "IC90", "setting": "[3]; read-out: IC90", "value": 77.4, "unit": "nM"},
      {"measurement": "IC90", "setting": "[3]; [7]", "value": "~0.806", "unit": "µg/mL"},
      {"measurement": "IC50", "setting": "[3]; expressed as plasma concentration, read-out: IC50, inhibition of BTK in vitro", "value": 192, "unit": "nM"},
      {"measurement": "responses/patients", "setting": "[4]", "value": "2/9"},
      {"measurement": "responses", "setting": "[5]", "value": 75, "unit": "%"},
      {"measurement": "IC90", "setting": "[6]; read-out: IC90", "value": 79.2, "unit": "nM"},
      {"measurement": "IC90", "setting": "[6]; [7]", "value": 0.824, "unit": "µg/mL"}
    ]}
  ]
}
